The values that follow come from paper PMC5674125, “Towards eco-friendly crop protection: natural deep eutectic solvents and defensive secondary metabolites” (Phytochemistry Reviews, 2017).

In data set [1] the test system is Mamestra configurata. Details: method as in Onyilagha et al. (2004). Conditions: applied at concentration > endogenous levels, 0.05–0.45 µmol per leaf disk, choice feeding assay; ref Onyilagha et al. (2004); cited from earlier work.
For data set [2], the system named is Helicoverpa armigera. Set-up: method as in Li et al. (2016). To be noted: ref Li et al. (2016), cited from earlier work.
The conditions of data set [3]: cited from earlier work; for Solubility in NADES compared to aqueous solubility: ref Dai et al. (2013, 2015).
The subject of data set [4] is Spodoptera litura. To be noted: 0.7–0.8 µg/ml; ref Mallikarjuna et al. (2004); cited from earlier work.
Data set [5] deals with Spodoptera frugiperda. Set-up: method as in Gallo et al. (2006). Conditions: 0.1 mg/g; ref Gallo et al. (2006); cited from earlier work.
The test system of data set [6] is Bactrocera Cucurbitae. Details: method as in Sharma and Sohal (2013). Conditions: 125 ppm; ref Sharma and Sohal (2013); cited from earlier work.
Data set [7] relates to Acyrthosiphon pisum. Details: method as in Goławska et al. (2014). Conditions: ref Goławska et al. (2014), cited from earlier work.
Data set [8] is described as follows: Solubility in natural deep eutectic solvents (saturated solutions, UV-VIS). The format is physicochemical. To be noted: for Solubility: 24 h at 50 °C, mean ± SD, n = 3. Here is the method:
As an extension of these studies, we have investigated the solubility of six insecticidal metabolites in a variety of NADES. The solvent selection framework consisted of the following steps: • Preliminary solvent screening: a pre-selected set of 20 NADES was used as a starting point to identify and rank potential NADES candidates (Table 3). Selection constraints were imposed on important properties such as viscosity and stability.
• Secondary screening: solubility tests were performed to determine the best solvent for each of the metabolites. Saturated solutions, generated by adding an excess amount of each compound to different NADES, were kept under constant stirring (1100 rpm) for 24 h at 50 °C. The 20 candidates were ranked in decreasing order of solvent power. • Solubility verification: For the verification of solubilities, samples were centrifuged for 5 min at 2000 rpm and subsequently diluted suitably with methanol for spectrophotometric analysis (UV-1800 UV–VIS spectrophotometer, Shimadzu Europe GmbH, Duisburg, Germany).

Data set [9] deals with Aphis fabae. Set-up: method as in Lattanzio et al. (2000). To be noted: 0.1 M; ref Lattanzio et al. (2000); cited from earlier work.
Data set [10] relates to Lymantria dispar. Set-up: method as in Beninger and Abou-Zaid (1997). Conditions: 0.05%, day 15; ref Beninger and Abou-Zaid (1997); cited from earlier work.
The test system of data set [11] is Spodoptera frugiperda. Details: method as in Diaz Napal and Palacios (2015). Conditions: 100 µg/cm^2; ref Diaz Napal and Palacios (2015); cited from earlier work.
For data set [12], the system named is Helicoverpa armigera. Details: method as in Liu et al. (2015). Conditions: 3 and 10 mg/g; ref Liu et al. (2015); cited from earlier work.
In data set [13] the test system is Lymantria dispar. Set-up: method as in Beninger et al. (2004). Conditions: 100 ppm (2.8 mM) and 1000 ppm (28 mM); ref Beninger et al. (2004); cited from earlier work.
The test system of data set [14] is Dalbulus maidis. Details: method as in Dowd and Vega (1996). Conditions: adults, 400 ppm, in vitro bioassay; ref Dowd and Vega (1996); cited from earlier work.
Data set [15] concerns Trichoplusia ni. Details: method as in Beninger et al. (2004). Conditions: 100 ppm (2.8 mM) and 1000 ppm (28 mM); ref Beninger et al. (2004); cited from earlier work.
Data set [16] concerns Frankliniella occidentalis. Set-up: method as in Leiss et al. (2009a). Conditions: 5% (5 mg/ml); ref Leiss et al. (2009a); cited from earlier work.
Data set [17] relates to Plagiodera versicolora. Set-up: method as in Jassbi (2003). Conditions: ref Jassbi (2003); cited from earlier work.
For data set [18], the system named is Agelastica alni. Set-up: method as in Ikonen et al. (2002). To be noted: 2.48% by weight, dual choice bioassay; ref Ikonen et al. (2002); cited from earlier work.
The subject of data set [19] is Helicoverpa zea. Details: method as in Summers and Felton (1994). Conditions: 4 mM, ref Summers and Felton (1994), cited from earlier work.
Data set [20] concerns Spodoptera litura. Details: method as in Jadhav et al. (2012). To be noted: 1 µg/ml; ref Jadhav et al. (2012); cited from earlier work.
The subject of data set [21] is Anticarsia gemmatalis. Set-up: method as in Salvador et al. (2010). To be noted: 0.65% (mg/ml); ref Salvador et al. (2010); cited from earlier work.
Data set [22] concerns Acanthoscelides obtectus. Set-up: method as in Regnault-Roger et al. (2004). To be noted: adults, in vitro bioassay; ref Regnault-Roger et al. (2004); cited from earlier work.
Data set [23] deals with Helicoverpa zea. Set-up: method as in Simmonds (2003). To be noted: 10^−3 M; ref Simmonds (2003); cited from earlier work.
In data set [24] the test system is Phyllotreta cruciferae. Set-up: method as in Onyilagha et al. (2012). To be noted: 1 month old flea beetle, binary feeding bioassay; ref Onyilagha et al. (2012); cited from earlier work.
Data set [25] deals with Helicoverpa armigera. Set-up: method as in Simmonds (2003). To be noted: 10^−3 M; ref Simmonds (2003); cited from earlier work.
Data set [26] concerns Helicoverpa armigera. Set-up: method as in Jadhav et al. (2012). To be noted: 1 µg/ml; ref Jadhav et al. (2012); cited from earlier work.
Data set [27] concerns Pieris rassicae. Set-up: method as in Onkokesung et al. (2014). Conditions: applied exogenously at 100 µM; ref Onkokesung et al. (2014); cited from earlier work.

Turning to `O=c1c(O[C@@H]2O[C@H](CO)[C@@H](O)[C@H](O)[C@H]2O)c(-c2ccc(O)cc2)oc2cc(O[C@@H]3O[C@H](CO)[C@@H](O)[C@H](O)[C@H]3O)cc(O)c12` [Kaempferol-3,7-diglucoside], the Feeding deterrence result in data set [1] was “Kaempferol-3,7-diglucoside acts as feeding deterrent when applied at concentration > endogenous levels; 0.05–0.45 µmol per leaf disk (choice feeding assay)”.

As to `O=c1c(O)c(-c2ccc(O)c(O)c2)oc2cc(O)cc(O)c12` [Quercetin], the Reduction of pupation in data set [2] (8 mg/g) is given as 50%. In data set [2] (16 mg/g), the “Reduction of larval weight” value is about 50%. The Mortality in data set [2] (32 mg/g) was over 80%. Moreover, the “Solubility in NADES compared to aqueous solubility” value in data set [3] is “significantly increased”. For the same compound, in data set [4], the Development result is reported as “Developmental retardation” and the Larval mortality is listed as over 60%. The Larval mortality in data set [5] was 78% Larval mortality at 0.1 mg/g. In addition, the “Food assimilation, larval and pupal weight” value in [6] was “Growth regulator and or deterrent: reduction in food assimilation as well as larval and pupal weight at 125 ppm”. Moreover, in [7] (100 µg cm^−3), the “Probing and feeding deterrence” value is “Probing and feeding deterrent”. Further, the “Mortality, development time, fecundity” value in [7] (higher concentration than 100 µg cm^−3) is “mortality and development time are increased whereas fecundity is decreased”. In [8] (1,2-propanediol: choline chloride: water (1:1:1), water 7.71%), this compound showed a Solubility of 44.34 ± 0.76 mg/g. Further, the Progeny deposition result in data set [9] is recorded as “Inhibitory activity on progeny deposition 0.1 M”. In addition, in data set [10], the Larval weight reduction result was “Larval growth inhibitor. Larval weight reduced by 33% at 0.05% at day 15”. The Feeding deterrence result in [11] is listed as “Feeding deterrent (57%) at 100 µg/cm^2”. Further, the “Growth, pupation, adult emergence, survival” value in data set [12] is “Deleterious effects growth, pupation and adult emergence, and survivalat 3 and 10 mg/g”.

With `O=C(/C=C/c1ccc(O)c(O)c1)O[C@@H]1C[C@](O)(C(=O)O)C[C@@H](O)[C@H]1O` [Chlorogenic acid], the “Larval growth and development” value in data set [13] was “Reduced larval growth and development at 100 ppm (2.8 mM) and 1000 ppm (28 mM)”. Besides, the Antifeedant activity entry in [14] was “Antifeedant activity in adults at 400 ppm (in vitro bioassay)”. Also, the “Larval growth and development” value in data set [15] was “Reduced larval growth and development at 100 ppm (2.8 mM) and 1000 ppm (28 mM)”. Also, the “Relative growth rate and survival of first instar larva” value in data set [16] is “Reduced relative growth rate and survival of first instar larva at 5% (5 mg/ml)”. Moreover, in data set [4], the Development entry is given as “Developmental retardation” and the Larval mortality is over 60%. Moreover, the “Amount with antifeedant activity” value in data set [17] is given as “Antifeedant activity above 50 µg/disk”. Further, the Feeding deterrence entry in data set [18] is “Feeding deterrent at concentration of 2.48% by weight (dual choice bioassay)”. Also, the “Prooxidant effect on midgut proteins” value in [19] (chronic exposure) was “oxidative stress in midgut proteins”. For the same compound, in [19], the “Development rate, survivorship and pupal weight” value was “Development rate and pupal weight are negatively influenced”.

On to `C[C@@H]1O[C@@H](OC[C@H]2O[C@@H](Oc3c(-c4ccc(O)c(O)c4)oc4cc(O)cc(O)c4c3=O)[C@H](O)[C@@H](O)[C@@H]2O)[C@H](O)[C@H](O)[C@H]1O` [Rutin], for which the “Larval development, pupal mortality, adult malformation” value in [20] was “Larval development arrested, increased pupal mortality and malformation of adults at 1 µg/ml”. For the same compound, in data set [3] (diluted with 5–10% of water, ref Dai et al. (2013)), the “Solubility in NADES diluted with water” value is “higher solubility”. In data set [3], the “Solubility in NADES compared to aqueous solubility” value is “significantly increased”. In addition, the Development result in data set [4] was “Developmental retardation”. In data set [4], the Larval mortality is listed as over 60%. Further, the “Larval development, amount of food consumed, pupal weight” value in data set [21] is “Larval development, amount of food consumed, and pupal weight were negatively influenced at 0.65% (mg/ml)”. Besides, the “Knockdown effect (mobility and mortality)” value in data set [22] is “Knockdown effect in bioassay: reduced mobility and increased mortality of adults”. Further, the Feeding deterrence result in [23] is given as “Feeding deterrent at 10^−3 M”; in data set [24] it was “Feeding deterrent of 1 month old flea beetle (binary feeding bioassay)”; in [25] it was “Feeding deterrent at 10^−3 M”. The compound further had a Solubility in data set [8] (1,2-propanediol: choline chloride: water (1:1:3), water 20.04%) of 18.46 ± 0.67 mg/g. Also, the “Solubility increase compared to water” value in data set [8] (PCH (1:1:3) versus water (Tables 2, 4)) is reported as “fivefold”. Further, the “Feeding and larval growth” value in [26] is “Cessation of feeding inhibits larval growth (1 µg/ml)”. The Larval weight reduction entry in data set [10] was “Larval growth inhibitor. Larval weight reduced by 45% at 0.05% at day 15”.

`C[C@@H]1O[C@@H](Oc2cc(O)c3c(=O)c(O[C@@H]4O[C@@H](C)[C@H](O)[C@@H](O)[C@H]4O)c(-c4ccc(O)cc4)oc3c2)[C@H](O)[C@H](O)[C@H]1O` [kaempferol 3-O-rhamnoside 7-O-rhamnoside]: the Growth entry in data set [27] was “Growth negatively affected”.
